{"source": "patent US5164405A", "about": "“Nicardipine pharmaceutical composition for parenteral administration” (Syntex (U.S.A.) Inc., priority 1990, dated 1992)", "key": {"[1]": {"assay": "physchem", "assay_type": "physicochemical", "conditions": "for solubility thermodynamic: Equilibrium solubility", "text": "The solubilities were equilibrium solubilities measured by a saturated solution method well known to those skilled in the art."}, "[2]": {"assay": "Dissolution, free base precipitation and tonicity on preparation of formulations", "assay_type": "physicochemical", "conditions": "for Dissolution: added to citrate buffer solution; for Dissolution / Dissolution in water for injection / free base precipitation: monohydrochloride; for Dissolution in water for injection / free base precipitation: unbuffered water for injection, before pH adjustment", "method": "With regard to the process for producing the stable pharmaceutical composition according to the inventions, preferably the citric acid and sodium hydroxide is first dissolved in some water for injection to form a solution of the desired pH. The nicardipine HCI and sorbitol are then added and dissolved in this solution of controlled pH and the resulting solution made to volume with the remainder of the water for injection.\nA. In an initial attempt to formulate a pharmaceutical composition of nicardipine hydrochloride suitable for parenteral administration employing conventional techniques well known in the pertinent art, 1 mg of nicardipine hydrochloride was dissolved in water for injection. To this was admixed 6 mg of sodium chloride and a sufficient amount of hydrochloric acid to give a solution having a pH of 3 5. This solution was then made up to volume with water for injection, i.e., to 1 ml. The resulting composition was packaged in an ampule and sterilized by autoclaving.\nB. Then, in a following attempt to formulate a pharmaceutical composition of nicardipine hydrochloride for parenteral administration employing conventional techniques well known in the pertinent art, 1 mg of nicardipine hydrochloride together with about 50 mg of the non-chloride, saccharide compound, sorbitol, were dissolved in a portion of water for injection. Sufficient amounts of concentrated hydrochloric acid was added to produce a solution of pH 3.5 and the composition was made to volume with the remainder of the water for injection, i.e. to 1 ml. The resulting composition was packaged in an ampule and sterilized by autoclaving.\nThe solution was made up to volume, i.e 1 ml. with the remainder of the water for injection. This solution was then filled into ampules and terminally sterilized by autoclaving."}}, "data": [{"smiles": "COC(=O)C1=C(C)NC(C)=C(C(=O)OCCN(C)Cc2ccccc2)C1c1cccc([N+](=O)[O-])c1.Cl", "note": "(stereo not shown) [Nicardipine Hydrochloride, 2-(Benzylmethylamino)ethyl methyl 1,4-dihydro-2,6-dimethyl-4-(m-nitrophenyl)-3,5-pyridine-dicarboxylate monohydrochloride]", "values": [{"measurement": "Aqueous solubility as a function of pH", "setting": "[1]", "result": "reduction in the aqueous solubility"}, {"measurement": "solubility thermodynamic", "setting": "[1]; water, pH 3.05, water", "result": 2940, "unit": "µg/mL"}, {"measurement": "solubility thermodynamic", "setting": "[1]; water, pH 3.45, water", "result": 3280, "unit": "µg/mL"}, {"measurement": "Equilibrium solubility", "setting": "[1]; water, pH 4.06", "result": 5.16, "unit": "mg/mL"}, {"measurement": "solubility thermodynamic", "setting": "[1]; water, pH 4.06, water", "result": 2950, "unit": "µg/mL"}, {"measurement": "solubility thermodynamic", "setting": "[1]; water, pH 4.24, water", "result": 2350, "unit": "µg/mL"}, {"measurement": "solubility thermodynamic", "setting": "[1]; water, pH 4.68, water", "result": 850, "unit": "µg/mL"}, {"measurement": "solubility thermodynamic", "setting": "[1]; water, pH 5.05, water", "result": 360, "unit": "µg/mL"}, {"measurement": "solubility thermodynamic", "setting": "[1]; water, pH 6.21, water", "result": 25, "unit": "µg/mL"}, {"measurement": "Dissolution", "setting": "[2]; listed as Nicardipine HCl", "result": "very easy"}, {"measurement": "Dissolution", "setting": "[2]", "result": "rapid and complete dissolution"}, {"measurement": "Precipitation of free base", "setting": "[2]; dissolved in buffer solution", "result": "No precipitation of free base was observed"}, {"measurement": "Temperature that can be required for dissolution", "setting": "[2]; dissolved in water, before buffer addition or unbuffered", "result": "60-70 °C"}, {"measurement": "Dissolution of required dose strength (1 mg per ml)", "setting": "[2]; sodium chloride increased to give an isotonic solution", "result": "failure to dissolve sufficient nicardipine hydrochloride"}, {"measurement": "Dissolution in water for injection / free base precipitation", "setting": "[2]; listed as Nicardipine HCl", "result": "difficult"}, {"measurement": "Dissolution in water for injection / free base precipitation", "setting": "[2]", "result": "formation of nicardipine free base which precipitates from solution"}]}]}
